As usually defined, the IC50 is the concentration at which inhibition is half-maximal. A higher IC50 goes with lower potency.

The target of this assay is B-Raf (V600E)-kinase (Homo sapiens (Human), UniProt P15056, V600E). In words: Kinase test B-RAF (V600E). As to conditions: B-RAF (V600E) kinase test, 250 μM ATP. It is filed as biochemical. In a few lines: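 B-Raf (V600E) (0.5 ng) preincubated with compound 24 h at RT (5% DMSO), then reacted 60 min at RT with 250 μM ATP and biotinylated MEK1 as substrate. Phospho-MEK (Ser217/221) captured on streptavidin and detected by europium time-resolved fluorescence; IC50 from dose-response curves.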
Chain of B-Raf (V600E)-kinase (P15056 whole entry V600E): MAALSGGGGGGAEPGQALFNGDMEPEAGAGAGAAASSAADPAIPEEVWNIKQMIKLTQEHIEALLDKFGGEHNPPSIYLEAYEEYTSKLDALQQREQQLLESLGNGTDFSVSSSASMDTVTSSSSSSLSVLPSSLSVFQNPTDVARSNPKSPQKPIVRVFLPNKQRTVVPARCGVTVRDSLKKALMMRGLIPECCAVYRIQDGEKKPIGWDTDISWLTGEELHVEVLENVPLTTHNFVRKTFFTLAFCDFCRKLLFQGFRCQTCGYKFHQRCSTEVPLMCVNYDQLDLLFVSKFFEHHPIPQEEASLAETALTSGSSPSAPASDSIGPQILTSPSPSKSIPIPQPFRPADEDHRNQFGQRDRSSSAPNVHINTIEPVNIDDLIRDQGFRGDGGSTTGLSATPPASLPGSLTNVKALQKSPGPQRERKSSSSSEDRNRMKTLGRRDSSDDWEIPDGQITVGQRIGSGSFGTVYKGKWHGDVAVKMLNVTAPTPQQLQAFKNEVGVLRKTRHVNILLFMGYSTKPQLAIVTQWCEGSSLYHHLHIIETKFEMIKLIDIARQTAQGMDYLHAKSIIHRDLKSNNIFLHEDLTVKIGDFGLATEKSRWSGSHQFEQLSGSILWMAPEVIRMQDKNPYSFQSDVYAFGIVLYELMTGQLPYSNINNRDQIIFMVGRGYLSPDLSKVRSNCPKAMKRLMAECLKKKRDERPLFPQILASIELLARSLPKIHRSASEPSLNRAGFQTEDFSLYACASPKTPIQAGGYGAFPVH
Turning to `Cc1ccc(C(=O)Nc2cc(C(C)(C)C)n[nH]2)cc1Nc1ncnc2cncnc12` [V-9], the IC50 came to 5 nM.

`Cc1ccc(C(=O)Nc2cc(C(C)(C)C)nn2C)cc1Nc1ncnc2cncnc12` [V-10] came in with an IC50 of 14 nM.

`CNc1ncnc2c(Nc3cc(C(=O)Nc4cc(C(C)(C)C)on4)ccc3C)ncnc12` [VII-1]: the IC50 stood at 1 nM.

As to `CNc1ncnc2c(Nc3cc(NC(=O)c4cccc(C(C)(C)C#N)c4)ccc3C)ncnc12` [VIII-1], the IC50 was < 1 nM.

As to `CC(C)(C#N)c1cccc(C(=O)Nc2cccc(Nc3ncnc4c(N)ncnc34)c2)c1` [VIII-2], the 50% inhibitory concentration (IC50) was 30 nM.

For `CNc1ncnc2c(Nc3cccc(NC(=O)c4cccc(C(C)(C)C#N)c4)c3)ncnc12` [VIII-3], half-maximal inhibition (IC50) was put at 13 nM.
